Results reported in patent US20210293825A1, “METHODS FOR PRECISION THERAPEUTIC TARGETING OF HUMAN CANCER CELL MOTILITY AND KITS THEREOF” (UNITED STATES GOVERNMENT AS REPRESENTED BY THE DEPARTMENT …, priority 2018, published 2021).

How the values were obtained:
[1] = target: T1, HSP90β/CDC37 heterocomplexes (Homo sapiens, UniProt P08238+Q16543); assay: DARTS assay with HSP90β and CDC37 combined; format: binding
T1 construct: made in house; host or cells: E. coli (Rosetta BL-21 for HSP90B, BL-21 DE-3 for CDC37)
Description: Equimolar amounts of HSP90β and CDC37 protein were pre-incubated with KBU2046, and resultant thermolysin reaction products were detected by silver stain following SDS-PAGE.
(§1) DARTS provides a sensitive measure of ligand-induced changes in protein structure and dynamics by measuring the ability of a ligand to protect its target from protease digestion (Lomenick, B. et al., Proc Natl Acad Sci USA 106, 21984-9 (2009)). […] The intensity of the CDC37 band increased, that of the HSP90β degradation product decreased, and both effects were statistically significant, concentration-dependent and were evident at 10 nM. […] Further, these findings also indicate that KBU2046 is not acting as a classical HSP90 inhibitor.
Biophysical and Biochemical Binding Assays. Fluorescent thermal shift (Krishna, S. N. et al., PLoS One 8, e81504 (2013)), isothermal titration calorimetry (Chavez, J. D. et al., Mol Cell Proteomics 12, 1451-67 (2013)), and biolayer interferometry assays (Makowska-Grzyska, M. et al., Biochemistry 51, 6148-63 (2012)), were performed using MEK4EE (37-399, S257E, T261E) cloned into pMCSG7 and KRX Competent E. coli cells (Promega Inc.) and full-length HSP90B and CDC37 vectors and Rosetta BL-21 and BL-21 DE-3 competent E. coli cells, respectively. […]

PC3-luc cells = assay: Prostate cancer intracardiac injection bone metastasis model; format: in vivo, athymic mice
Description: Athymic mice were given intracardiac (IC) injections of PC3-luc cells on day 0 under ultrasound guidance, and underwent weekly IVIS imaging starting seven days post injection. Cohorts of N=20 control, N=20 Pre (treatment from 3 days prior to IC injection through end of experiment), N=10 Pre7Stop (treatment from 3 days prior to IC injection through 7 days post IC injection) and N=10 Post treatment (treatment from 3 days post-IC injection through end of experiment) mice were dosed with 80 mg/kg KBU2046 daily by oral gavage and mock treated with vehicle all other times. FIG. 3c depicts whole body and FIG. 3b depicts mandible flux as determined from weekly IVIS imaging. […] Arrows denote areas of bone destruction in controls, and corresponding areas in the Pre mouse. Student's t test (b-c) and Fisher's exact test (d) P values between the denoted cohorts are shown.
Prostate cancer: intracardiac (IC) injection. IC injection of 4.0×10^5 PC3-Luc cells into male 6-8 week old athymic mice with IVIS imaging was performed as described (Chu, K. et al., Mol Cancer Res 6, 1259-67 (2008)), and was done so under ultrasound guidance (FIG. 15). Mice were treated pre- and/or post-IC injection, as indicated. The pretreatment cohort emulates a metastasis naïve model wherein cell motility is required in order for cells to invade into a distant organ, in this case the jaw bone, for which this model is widely used. If KBU2046 were inhibiting cell motility, then in this model it would act to inhibit metastasis formation. In contrast, with the post implantation cohort, cells have already completed invasion into the jaw bone, and distant metastasis have been established. […] IVIS imaging was performed 30 minutes after IC injection to confirm systemic distribution of cells, and thereafter weekly for 4 weeks starting seven days post injection, allowing real time tracking of metastasis development and growth. Computed Tomograpgy (CT) (Inveon, Seimens) radiographic imaging was performed on some mice, as indicated, and resultant images analyzed in a blinded fashion using Inveon Research Workplace 4.2 visualization/analysis software and ImageJ. […] Experimental groups were randomly assigned to cages prior to the initiation of the study. CT images were analyzed in a blinded fashion to determine total bone loss using both the Invenon Research Workplace 4.2 visualization/analysis software and ImageJ. Specifically, to assess bone loss in an unbiased manor, an operator randomly loaded images into the system and blocked out identifying information prior to analysis by two separate blinded individuals.

[2] = system: phosphorylation of p38 MAPK or of HSP27; assay: Downstream phosphorylation of p38 MAPK and HSP27 in cells (Western blot); format: cell-based, human; conditions: PC3-M cells, 50 μM, 24 hours, then TGFβ
Description: FIG. 16a is a depiction of established MKK4 pathway regulating human PCa cell metastasis. […] Values are the mean±SD (of N=2 replicates) increase in melting temperature (ΔTm) of purified recombinant MKK4 induced by the indicated concentrations of KBU2046 or genistein. […] The indicated concentrations of KBU2046 were added to recombinant activated MKK4, and its ability to phosphorylate kinase dead p38a MAPK (K53A) was measured by Western blot for total (p38 MAPK) and phosphorylated (pp38 MAPK) forms of p38 MAPK. […] PC3-M cells were pre-treated for 24 hours with 50 μM KBU2046 or genistein, as indicated, then with TGFβ, and Western blot performed. These findings are from a single experiment, with similar findings in identical separate experiments, repeated at least once.

HSP90β = target: T2, HSP90β (Homo sapiens, UniProt P08238); assay: Biophysical binding assays and DARTS, isolated HSP90β; conditions: ITC, thermal shift, biolayer interferometry, dynamic light scattering, DARTS
T2 construct: made in house; host or cells: Rosetta BL-21 E. coli
Description: Studies used purified recombinant HSP90β or CDC37. […] For DARTS assay, HSP90β or CDC37 were individually pre-incubated with KBU2046, thermolysin added, and reaction products were separated by SDS PAGE and visualized by silver stain (depicted above). NTco—no thermolysin control. However, when the DARTS assay was conducted with both HSP90β and CDC37 present, KBU2046 protected both proteins from degradation in a concentration-dependent manner (see, FIG. 5a).
as §1
Biophysical and Biochemical Binding Assays. […]

[3] = Pre cohort, 80 mg/kg daily oral gavage

T1 sequence (P08238 whole entry): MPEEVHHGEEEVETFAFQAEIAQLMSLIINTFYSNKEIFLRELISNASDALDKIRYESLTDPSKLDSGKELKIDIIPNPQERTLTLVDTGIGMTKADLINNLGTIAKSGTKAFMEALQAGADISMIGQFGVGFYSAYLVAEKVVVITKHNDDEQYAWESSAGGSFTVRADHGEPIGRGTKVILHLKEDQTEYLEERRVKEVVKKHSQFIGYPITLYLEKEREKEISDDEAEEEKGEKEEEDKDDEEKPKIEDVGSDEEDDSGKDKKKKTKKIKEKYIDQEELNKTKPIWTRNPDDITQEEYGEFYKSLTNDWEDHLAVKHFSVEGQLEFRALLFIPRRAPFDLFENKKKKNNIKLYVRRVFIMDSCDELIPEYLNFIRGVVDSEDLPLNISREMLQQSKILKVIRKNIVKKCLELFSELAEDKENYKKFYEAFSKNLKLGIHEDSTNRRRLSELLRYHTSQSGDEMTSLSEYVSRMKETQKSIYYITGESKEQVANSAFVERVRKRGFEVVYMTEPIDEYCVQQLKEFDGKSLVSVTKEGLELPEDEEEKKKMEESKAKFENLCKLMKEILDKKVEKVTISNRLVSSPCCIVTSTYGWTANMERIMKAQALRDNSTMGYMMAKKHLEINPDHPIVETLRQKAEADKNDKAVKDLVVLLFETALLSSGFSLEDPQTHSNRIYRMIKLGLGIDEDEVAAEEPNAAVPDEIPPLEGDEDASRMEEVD
T1 sequence (Q16543 whole entry): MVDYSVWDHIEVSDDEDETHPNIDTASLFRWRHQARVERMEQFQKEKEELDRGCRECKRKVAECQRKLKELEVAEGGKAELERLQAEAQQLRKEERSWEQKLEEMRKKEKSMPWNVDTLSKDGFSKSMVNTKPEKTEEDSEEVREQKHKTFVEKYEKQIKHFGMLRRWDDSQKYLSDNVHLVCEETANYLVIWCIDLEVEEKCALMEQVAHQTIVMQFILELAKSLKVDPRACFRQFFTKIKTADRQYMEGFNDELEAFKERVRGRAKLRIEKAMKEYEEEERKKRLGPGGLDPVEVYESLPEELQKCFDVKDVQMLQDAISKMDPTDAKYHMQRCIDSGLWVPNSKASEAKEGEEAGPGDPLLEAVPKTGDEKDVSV
T2 sequence (P08238 whole entry): as the sequence (P08238 whole entry) above

O=C1c2ccccc2OCC1c1ccc(F)cc1 (racemic) [KBU2046, (±)-3(4-fluorophenyl)chroman-4-one]
concentration at which effects on CDC37 and HSP90β bands were evident ([1]; concentration-dependent): 10 nM | protection from thermolysin digestion ([1]; equimolar HSP90β and CDC37): protected both proteins from digestion | metastasis to the total body and to the jaw (PC3-luc cells; Post cohort, treatment from 3 days post-IC injection): do not differ from control mice | jaw metastasis (PC3-luc cells; Pre7Stop cohort): jaw metastasis is significantly decreased compared to control | total body metastasis (PC3-luc cells; Pre7Stop cohort, compared to control and Post cohorts): total body metastasis is significantly decreased | metastasis to the mandible (PC3-luc cells; [3]): decreased metastasis to the mandible | total metastatic burden (whole body flux) (PC3-luc cells; [3]): significant decrease in total metastatic burden | destruction of bone (mandible, Computed Tomography) (PC3-luc cells; Pre cohort, week 4): decreased destruction of bone | inhibition of downstream phosphorylation of p38 MAPK or HSP27 [2]: did not inhibit downstream phosphorylation of p38 MAPK or of HSP27 | binding to HSP90β (HSP90β): no evidence of KBU2046 binding
